Assay results: US11230526B1, “Cylcoalkenyl derivatives useful as agonists of the GPR120 and/or GPR40 receptors” (Janssen Pharmaceutica NV, priority 2018, dated 2022)

What was measured:
[1] = target: T1, Human GPR120 short form (Homo sapiens, UniProt Q5NUL3); test: Human GPR120 calcium flux assay, Procedure Calcium B (4200 cells/well); format: cell-based
T1 construct: expressed in transfected cells
T1 sequence (Q5NUL3 1-361): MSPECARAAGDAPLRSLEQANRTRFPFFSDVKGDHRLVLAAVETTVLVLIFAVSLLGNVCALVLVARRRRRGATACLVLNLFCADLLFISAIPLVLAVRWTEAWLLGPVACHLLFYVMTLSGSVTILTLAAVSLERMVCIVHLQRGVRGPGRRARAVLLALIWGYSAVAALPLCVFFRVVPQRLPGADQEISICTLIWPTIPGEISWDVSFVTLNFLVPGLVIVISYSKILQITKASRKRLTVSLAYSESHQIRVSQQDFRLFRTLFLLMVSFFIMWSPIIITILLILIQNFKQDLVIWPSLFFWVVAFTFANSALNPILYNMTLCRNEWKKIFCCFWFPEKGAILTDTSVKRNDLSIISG
Procedure, shortened: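 HEK293 cells stably expressing human GPR120 (NM_001195755.1), 4200 cells/well, starved 1 h and loaded with Fluo-4 NW plus probenecid. Ligand-evoked calcium flux read on FLIPR for 300 s after a 10 s baseline. RFU = Fmax−Fmin; EC50 from four-parameter concentration-response fit.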

[2] = target: T2, human GPR40 (Homo sapiens, UniProt O14842); test: GPR40 calcium flux assay, human GPR40; format: cell-based; settings: HEK293 cells stably expressing GPR40; table does not say human or rat
T2 construct: expressed in transfected cells
Procedure, shortened: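 Cells preincubated 1 h at 37° C. in HBSS, 20 mM HEPES, 0.1% BSA, then Fluo 8 calcium dye 30 min at 37° C. and 15 min at room temperature.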

T2 sequence (O14842 whole entry): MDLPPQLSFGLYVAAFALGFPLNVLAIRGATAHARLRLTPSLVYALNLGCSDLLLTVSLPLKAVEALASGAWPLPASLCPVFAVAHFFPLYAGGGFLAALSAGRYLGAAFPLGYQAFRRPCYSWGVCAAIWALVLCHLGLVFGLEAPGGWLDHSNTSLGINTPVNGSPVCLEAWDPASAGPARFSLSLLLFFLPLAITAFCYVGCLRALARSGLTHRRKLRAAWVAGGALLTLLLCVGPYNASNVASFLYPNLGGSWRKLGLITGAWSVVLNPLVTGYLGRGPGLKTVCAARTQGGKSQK

EC50 [1] [nM]	EC50 [2] [nM]	SMILES
996	128	CC(C)c1cc(OCC2=C(C3CCCC3)CCC2)ccc1CCC(=O)O [Compound 410, 3-[4-[(2-cyclopentylcyclopenten-1-yl)methoxy]-2-isopropyl-phenyl]Propanoic Acid]
> 5000	133	O=C(O)CCc1ccc(OCC2=C(C3CCC(F)(F)CC3)CCC2)cc1Cl [Compound 411, 3-[2-chloro-4-[[2-(4,4-difluorocyclohexyl)cyclopenten-1-yl]methoxy]phenyl]Propanoic Acid]
4650	513	O=C(O)CCc1ccc(OCC2=C(C3CCC(F)(F)CC3)CCC2)cc1 [Compound 412, 3-[4-[[2-(4,4-difluorocyclohexyl)cyclopenten-1-yl]methoxy]phenyl]Propanoic Acid]
1800	> 10000	Cc1c(CCC(=O)O)ccc(OCC2=C(C3CCC(F)(F)CC3)CCC2)c1C [Compound 413, 3-[4-[[2-(4,4-difluorocyclohexyl)cyclopenten-1-yl]methoxy]-2,3-dimethyl-phenyl]Propanoic Acid]
> 5000	94	O=C(O)CCc1ccc(OCC2=C(C3CCC(F)(F)CC3)CCC2)cc1C(F)(F)F [Compound 416, 3-[4-[[2-(4,4-difluorocyclohexyl)cyclopenten-1-yl]methoxy]-2-(trifluoromethyl)phenyl]Propanoic Acid]
> 5000	1010	Cc1cc(OCC2=C(C3CCC(F)(F)CC3)CCC2)c(F)cc1CCC(=O)O [Compound 417, 3-[4-[[2-(4,4-difluorocyclohexyl)cyclopenten-1-yl]methoxy]-5-fluoro-2-methyl-phenyl]Propanoic Acid]
> 5000	171	O=C(O)CCc1ccc(OCC2=C(C3CCOCC3)CCC2)cc1Cl [Compound 418, 3-[2-chloro-4-[(2-tetrahydropyran-4-ylcyclopenten-1-yl)methoxy]phenyl]Propanoic Acid]
3170	> 10000	O=C(O)CCc1cc(F)c(OCC2=C(C3CCC(F)(F)CC3)CCC2)c(F)c1 [Compound 419, 3-[4-[[2-(4,4-difluorocyclohexyl)cyclopenten-1-yl]methoxy]-3,5-difluoro-phenyl]Propanoic Acid]
222	25	O=C(O)CCc1ccc(OCC2=C(C3CCCC3)CCC2)cc1Br [Compound 421, 3-[2-bromo-4-[(2-cyclopentylcyclopenten-1-yl)methoxy]phenyl]Propanoic Acid]
177	48	Cc1cc(OCC2=C(C3CCCC3)CCC2)ccc1CCC(=O)O [Compound 422, 3-[4-[(2-cyclopentylcyclopenten-1-yl)methoxy]-2-methyl-phenyl]Propanoic Acid]
272	61	CCc1cc(OCC2=C(C3CCCC3)CCC2)ccc1CCC(=O)O [Compound 423, 3-[4-[(2-cyclopentylcyclopenten-1-yl)methoxy]-2-ethyl-phenyl]Propanoic Acid]
200	82	O=C(O)CCc1ccc(OCC2=C(C3CCCC3)CCC2)cc1F [Compound 426, 3-[4-[(2-cyclopentylcyclopenten-1-yl)methoxy]-2-fluoro-phenyl]Propanoic Acid]
256	48	O=C(O)CCc1ccc(OCC2=C(C3CCCC3)CCC2)cc1Cl [Compound 428, 3-[2-chloro-4-[(2-cyclopentylcyclopenten-1-yl)methoxy]phenyl]Propanoic Acid]
335	46	O=C(O)CCc1ccc(OCC2=C(C3CCC3)CC(F)(F)C2)cc1Cl [Compound 430, 3-[2-chloro-4-[(2-cyclobutyl-4,4-difluoro-cyclopenten-1-yl)methoxy]phenyl]Propanoic Acid]
387	59	COc1cc(OCC2=C(C3CCCC3)CCC2)ccc1CCC(=O)O [Compound 434, 3-[4-[(2-cyclopentylcyclopenten-1-yl)methoxy]-2-methoxy-phenyl]Propanoic Acid]
334	48	C=Cc1cc(OCC2=C(C3CCCC3)CCC2)ccc1CCC(=O)O [Compound 442, 3-[4-[(2-cyclopentylcyclopenten-1-yl)methoxy]-2-vinyl-phenyl]Propanoic Acid]
> 5000	1580	CC(O)c1cc(OCC2=C(C3CCCC3)CCC2)ccc1CCC(=O)O (centres unmarked) [Compound 443, 3-[4-[(2-cyclopentylcyclopenten-1-yl)methoxy]-2-(1-hydroxyethyl)phenyl]Propanoic Acid]

Further lines, the compound ahead of its results:

SMILES	EC50 [1] [nM]	EC50 [2] [nM]
O=C(O)CCc1ccc(OCC2=C(C3CCOCC3)CCC2)cc1C(F)(F)F [Compound 415, 3-[4-[(2-tetrahydropyran-4-ylcyclopenten-1-yl)methoxy]-2-(trifluoromethyl)phenyl]Propanoic Acid]	> 5000	132
Cc1cc(OCC2=C(C3CCCC3)CCC2)c(F)cc1CCC(=O)O [Compound 424, 3-[4-[(2-cyclopentylcyclopenten-1-yl)methoxy]-5-fluoro-2-methyl-phenyl]Propanoic Acid]	245	248
O=C(O)CCc1ccc(OCC2=C(C3CCCC3)CCC2)c(F)c1 [Compound 425, 3-[4-[(2-cyclopentylcyclopenten-1-yl)methoxy]-3-fluoro-phenyl]Propanoic Acid]	143	3230
O=C(O)CCc1ccc(OCC2=C(C3(F)CCC3)CC(F)(F)C2)cc1C(F)(F)F [Compound 429, 3-[4-[[4,4-difluoro-2-(1-fluorocyclobutyl)cyclopenten-1-yl]methoxy]-2-(trifluoromethyl)phenyl]Propanoic Acid]	844	89
Cc1c(CCC(=O)O)ccc(OCC2=C(C3CCCC3)CCC2)c1F [Compound 431, 3-[4-[(2-cyclopentylcyclopenten-1-yl)methoxy]-3-fluoro-2-methyl-phenyl]Propanoic Acid]	59	> 10000
Cc1c(CCC(=O)O)ccc(OCC2=C(C3CCCC3)CCC2)c1C [Compound 432, 3-[4-[(2-cyclopentylcyclopenten-1-yl)methoxy]-2,3-dimethyl-phenyl]Propanoic Acid]	44	> 10000
O=C(O)CCc1cc(F)c(OCC2=C(C3CCCC3)CCC2)cc1C(F)(F)F [Compound 433, 3-[4-[(2-cyclopentylcyclopenten-1-yl)methoxy]-5-fluoro-2-(trifluoromethyl)phenyl]Propanoic Acid]	> 5000	> 10000
O=C(O)CCc1ccc(OCC2=C(C3CCCC3)CCC2)c(F)c1C(F)(F)F [Compound 435, 3-[4-[(2-cyclopentylcyclopenten-1-yl)methoxy]-3-fluoro-2-(trifluoromethyl)phenyl]Propanoic Acid]	> 5000	> 10000
O=C(O)CCc1cc(F)c(OCC2=C(C3CCCC3)CCC2)c(F)c1 [Compound 436]	159	> 10000
O=C(O)CCc1ccc(OCC2=C(Cc3ccccc3F)CCC2)cc1Cl [Compound 438, 3-[2-chloro-4-[[2-[(2-fluorophenyl)methyl]cyclopenten-1-yl]methoxy]phenyl]Propanoic Acid]	3340	138
O=C(O)CCc1c(F)cc(OCC2=C(C3CCCC3)CCC2)cc1C(F)(F)F [Compound 439, 3-[4-[(2-cyclopentylcyclopenten-1-yl)methoxy]-2-fluoro-6-(trifluoromethyl)phenyl]Propanoic Acid]	> 5000	> 10000
O=C(O)CCc1ccc(OCC2=C(Cc3nccs3)CCC2)cc1C(F)(F)F [Compound 440, 3-[4-[[2-(thiazol-2-ylmethyl)cyclopenten-1-yl]methoxy]-2-(trifluoromethyl)phenyl]Propanoic Acid]	2800	382
Cc1cc(OCC2=C(C3CCCC3)CC(F)(F)C2)ccc1CCC(=O)O [Compound 441, 3-[4-[(2-cyclopentyl-4,4-difluoro-cyclopenten-1-yl)methoxy]-2-methyl-phenyl]Propanoic Acid]	100	35
O=C(O)CCc1ccc(OCC2=C(C3CCCC3)CCC2)cc1C1CC1 [Compound 444, 3-[4-[(2-cyclopentylcyclopenten-1-yl)methoxy]-2-cyclopropyl-phenyl]Propanoic Acid]	319	174
O=C(O)CCc1ccc(OCC2=C(Cc3nccs3)CCC2)cc1Cl [Compound 445, 3-[2-chloro-4-[[2-(thiazol-2-ylmethyl)cyclopenten-1-yl]methoxy]phenyl]Propanoic Acid]	3540	266
O=C(O)CCc1ccc(OCC2=C(C3CCCC3)CCC2)cc1C(F)(F)C(F)(F)F [Compound 446, 3-[4-[(2-cyclopentylcyclopenten-1-yl)methoxy]-2-(1,1,2,2,2-pentafluoroethyl)phenyl]Propanoic Acid]	828	458
C=C(Br)c1cc(OCC2=C(C3CCCC3)CCC2)ccc1CCC(=O)O [Compound 448, 3-[2-(1-bromovinyl)-4-[(2-cyclopentylcyclopenten-1-yl)methoxy]phenyl]Propanoic Acid]	> 5000	2040
